Earlier results in patent US20170100411A1, “CORTICOSTEROID FORMULATIONS FOR MAINTAINING CORTICOSTEROID SYNOVIAL FLUID CONCENTRATIONS” (priority 2015, published 2017).

Tests used:
HPA axis = conditions: BID administration of 20 mg
[1] = target: T1, glucocorticosteroid (GC) receptor (Homo sapiens, UniProt P04150)
T1 sequence (P04150 1-777): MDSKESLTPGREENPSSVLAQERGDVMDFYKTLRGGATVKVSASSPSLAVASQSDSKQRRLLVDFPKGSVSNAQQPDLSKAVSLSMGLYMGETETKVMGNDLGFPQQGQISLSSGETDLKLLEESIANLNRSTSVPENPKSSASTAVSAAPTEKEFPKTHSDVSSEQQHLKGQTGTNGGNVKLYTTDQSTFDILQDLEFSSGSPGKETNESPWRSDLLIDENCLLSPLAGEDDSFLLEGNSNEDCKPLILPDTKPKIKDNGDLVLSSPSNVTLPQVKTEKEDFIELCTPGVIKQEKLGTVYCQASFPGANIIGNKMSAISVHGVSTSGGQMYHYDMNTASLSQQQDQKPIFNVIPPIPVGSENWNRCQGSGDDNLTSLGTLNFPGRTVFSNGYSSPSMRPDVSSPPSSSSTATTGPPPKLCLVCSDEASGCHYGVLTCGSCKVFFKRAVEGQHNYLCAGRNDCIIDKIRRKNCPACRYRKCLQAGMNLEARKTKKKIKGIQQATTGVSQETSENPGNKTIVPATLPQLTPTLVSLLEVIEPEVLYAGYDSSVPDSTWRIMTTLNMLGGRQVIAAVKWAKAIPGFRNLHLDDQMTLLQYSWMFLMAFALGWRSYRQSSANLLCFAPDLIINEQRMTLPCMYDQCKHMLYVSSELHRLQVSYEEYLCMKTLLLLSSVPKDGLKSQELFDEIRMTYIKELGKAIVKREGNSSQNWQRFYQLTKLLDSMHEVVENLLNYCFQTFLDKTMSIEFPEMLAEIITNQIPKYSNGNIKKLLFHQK

Compound	suppression of the HPA axis (published CCS %) (HPA axis)	potency at the GC receptor relative to other corticosteroids such as TCA [1]
Methylprednisone	80-90%	–
CCC(=O)O[C@]1(C(=O)SCF)[C@H](C)C[C@H]2[C@@H]3C[C@H](F)C4=CC(=O)C=C[C@]4(C)[C@@]3(F)[C@@H](O)C[C@@]21C [fluticasone propionate]	–	approximately 20 fold
